Results published in ChEMBL document CHEMBL5725332, “Quinazoline derivative” (2017).

Experiment: Luciferase Assay: Using ONE-Glo Luciferase Assay System (Promega Corporation, No. E6110), the luciferase activity of the cells in the wells was measured by a microplate reader (Synergy H1, BioTek Instruments, Inc.) An IC50 value was calculated from the luminescence intensity of each compound concentration, supposing that the luminescence intensity of a group with no addition of the compound and with Wnt-3a stimulation was 100%, and that the luminescence intensity of a group with no addition of the compound and with no Wnt-3a stimulation was 0%.
Conditions: Homo sapiens

For `Cc1nc2c(C)cc(Nc3ncc4cccc(O[C@H]5CC[C@@H](O)CC5)c4n3)cc2[nH]1`, the IC50 was “in the range around 650 nM”.

For `COc1ccc2c(Nc3ncc4cccc(O[C@H]5CC[C@@H](O)CC5)c4n3)ccnc2c1`, the IC50 was “in the range around 650 nM”.

For `Cc1ccc2cc(Nc3ncc4cccc(O[C@H]5CC[C@@H](O)CC5)c4n3)ccc2n1`, the IC50 was “in the range around 650 nM”.

For `Cc1nc2ccc(Nc3ncc4ccc(Br)c(O[C@H]5CC[C@@H](O)CC5)c4n3)cc2[nH]1`, the IC50 was “in the range around 650 nM”.

`OCc1n[nH]c2cc(Nc3ncc4ccc(F)c(O[C@H]5CC[C@@H](O)CC5)c4n3)ccc12` gave an IC50 of less than 300 nM.

In the case of `O[C@H]1CC[C@@H](Oc2cccc3cnc(Nc4ccc5nc(C(F)(F)F)[nH]c5c4)nc23)CC1`, the IC50 is reported as “in the range around 2000 nM”.

Compound `O[C@H]1CC[C@@H](Oc2c(F)ccc3cnc(Nc4ccc5ncccc5c4)nc23)CC1` has an IC50 of less than 300 nM.

For `O[C@H]1CC[C@@H](Oc2cccc3cnc(Nc4ccc5scnc5c4)nc23)CC1`, the IC50 was less than 300 nM.

For `O[C@H]1CC[C@@H](Oc2cccc3cnc(Nc4cccc5cnccc45)nc23)CC1`, the IC50 was “in the range around 650 nM”.

In the case of `O[C@H]1CC[C@@H](Oc2cccc3cnc(Nc4ccnc5cc(F)ccc45)nc23)CC1`, the IC50 is reported as “in the range around 650 nM”.

With `O[C@H]1CC[C@@H](Oc2cccc3cnc(Nc4ccnc5ccccc45)nc23)CC1` the IC50 was less than 300 nM.

With `Cc1cc2nc[nH]c2cc1Nc1ncc2cccc(O[C@H]3CC[C@@H](O)CC3)c2n1` the IC50 was “in the range around 650 nM”.

`O[C@H]1CC[C@@H](Oc2cccc3cnc(Nc4ccc5nc[nH]c5c4)nc23)CC1` showed an IC50 of less than 300 nM.

In the case of `OCc1nc2cc(Nc3ncc4cccc(O[C@H]5CC[C@@H](O)CC5)c4n3)ccc2[nH]1`, the IC50 is reported as “in the range around 650 nM”.

With `OCc1cc(Nc2ncc3cccc(O[C@H]4CC[C@@H](O)CC4)c3n2)cc2[nH]cnc12` the IC50 was less than 300 nM.

`O[C@H]1CC[C@@H](Oc2cccc3cnc(Nc4ccc5[nH]c(CN6CCCC6)nc5c4)nc23)CC1` showed an IC50 of less than 300 nM.

With `O[C@H]1CC[C@@H](Oc2cccc3cnc(Nc4ccc5ccncc5c4)nc23)CC1` the IC50 was “in the range around 2000 nM”.

In the case of `O[C@H]1CC[C@@H](Oc2cc(F)cc3cnc(Nc4ccc5nc[nH]c5c4)nc23)CC1`, the IC50 is reported as “in the range around 650 nM”.

In the case of `C[C@H](O)c1nc2ccc(Nc3ncc4cccc(O[C@H]5CC[C@@H](O)CC5)c4n3)cc2[nH]1`, the IC50 is reported as “in the range around 650 nM”.

In the case of `O[C@H]1CC[C@@H](Oc2cccc3cnc(Nc4ccc5ncccc5c4)nc23)CC1`, the IC50 is reported as “in the range around 650 nM”.

For `COCc1nc2ccc(Nc3ncc4cccc(O[C@H]5CC[C@@H](O)CC5)c4n3)cc2[nH]1`, the IC50 was “in the range around 650 nM”.

For `Cc1nc2c(Br)cc(Nc3ncc4cccc(O[C@H]5CC[C@@H](O)CC5)c4n3)cc2[nH]1`, the IC50 was “in the range around 2000 nM”.

For `Cc1ccc2cnc(Nc3ccc4nc[nH]c4c3)nc2c1O[C@H]1CC[C@@H](O)CC1`, the IC50 was “in the range around 650 nM”.

For `O[C@H]1CC[C@@H](Oc2c(Br)ccc3cnc(Nc4ccc5nc[nH]c5c4)nc23)CC1`, the IC50 was less than 300 nM.

Work on `O[C@H]1CC[C@@H](Oc2c(F)ccc3cnc(Nc4ccc5ncsc5c4)nc23)CC1` yielded an IC50 of less than 300 nM.

With `O[C@H]1CC[C@@H](Oc2cccc3cnc(Nc4ccc5cnccc5c4)nc23)CC1` the IC50 was “in the range around 650 nM”.
